US9850283B2, “Macrocyclic inhibitors of the PD-1/PD-L1 and CD80(B7-1)/PD-L1 protein/protein interactions” (BRISTOL-MYERS SQUIBB COMPANY, priority 2013, dated 2017)
Read-outs that look alike come from different tables or passages of the source. Positions of bridges follow the written chain, without caps; N, C: chain ends. Non-standard residues stand in square brackets, D forms with d. Residues, ends and D or L forms follow the SMILES beside them. Phe(3,4-(OMe)2) = COc1ccc(C[C@H](N)C(=O)O)cc1OC; Phe(3-Cl) = N[C@@H](Cc1cccc(Cl)c1)C(=O)O; Phe(4-Cl) = N[C@@H](Cc1ccc(Cl)cc1)C(=O)O; cisHyp = O=C(O)[C@@H]1C[C@H](O)CN1; Hyp = O=C(O)[C@@H]1C[C@@H](O)CN1; NMeF = CN[C@@H](Cc1ccccc1)C(=O)O; 2Pal = N[C@@H](Cc1ccccn1)C(=O)O; NMeNle = CCCC[C@H](NC)C(=O)O; NMeA = CN[C@@H](C)C(=O)O; Orn = NCCC[C@H](N)C(=O)O; dThz = O=C(O)[C@H]1CSCN1; Dab = NCC[C@H](N)C(=O)O; Sar = CNCC(=O)O

Tests used:
Human PD-L1/PD-1 = target: T1, Human PD-L1/PD-1 (Homo sapiens, UniProt Q9NZQ7); experiment: HTRF PD-1-Ig/PD-L1-His binding assay (human PD-L1)
T1 construct: made in house; host or cells: HEK293T
In short: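 Steps: truncated PD-1-Ig and PD-L1-His fusions are incubated in dPBS containing 0.1% (w/v) BSA and 0.05% (v/v) Tween-20. Detection antibodies are then added (Eu cryptate anti-Ig at 1 nM final, APC anti-His at 20 nM final), and time-resolved FRET is measured.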

[1] = target: T2, LK35.2-hPD-L1 cells / PE-labeled PD-1-Ig (Homo sapiens, UniProt Q9NZQ7); experiment: LK35.2-hPD-L1 cell binding high-content screening assay; assay type: cell-based
T2 construct: expressed in transfected cells; host or cells: LK35.2 mouse B cell line
In short: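 Fluorescent PD-1-Ig binding to PD-L1-expressing LK35.2 cells, imaged after washing. Conditions: 1 nM PE-PD-1-Ig, 37 °C, 1 h, RPMI with 10% fetal calf serum.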

[2] = cluster symbol, read-out: HTRF IC50 cluster
[3] = cell binding assay, cell line not given, cluster symbol, read-out: CBA IC50 cluster
[4] = cluster symbol, cell line of CBA not given (LK35.2-hPD-L1 or 293T-hPD-L1), read-out: CBA IC50 cluster

T2 sequence (Q9NZQ7 19-290): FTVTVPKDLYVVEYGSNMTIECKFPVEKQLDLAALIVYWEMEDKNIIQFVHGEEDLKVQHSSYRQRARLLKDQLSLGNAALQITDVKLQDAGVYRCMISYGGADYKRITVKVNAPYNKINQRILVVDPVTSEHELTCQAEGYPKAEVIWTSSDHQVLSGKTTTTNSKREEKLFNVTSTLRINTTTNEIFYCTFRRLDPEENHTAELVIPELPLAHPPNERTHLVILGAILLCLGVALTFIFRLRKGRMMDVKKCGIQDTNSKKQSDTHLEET
T1 sequence (Q9NZQ7 with tags, fused parts or gaps): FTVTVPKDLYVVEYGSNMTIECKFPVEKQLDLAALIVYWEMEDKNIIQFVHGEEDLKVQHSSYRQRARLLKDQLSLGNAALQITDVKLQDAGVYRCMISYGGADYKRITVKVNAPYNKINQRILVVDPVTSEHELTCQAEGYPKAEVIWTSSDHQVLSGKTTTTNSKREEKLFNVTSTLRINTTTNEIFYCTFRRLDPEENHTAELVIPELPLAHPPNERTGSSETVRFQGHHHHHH

Row | Structure (SMILES) | IC50 (Human PD-L1/PD-1; [2]) [nM] | IC50 [1, 3] [nM] | IC50 [1, 4] [nM] | IC50 (Human PD-L1/PD-1; value given instead of cluster, read-out: HTRF IC50 value) [nM] | IC50 ([1]; cell binding assay, cell line not given, value given instead of cluster, read-out: CBA IC50 value) [nM]
1 | CCCC[C@H]1C(=O)N(C)CC(=O)N[C@@H](CC(=O)O)C(=O)N[C@@H](C(C)C)C(=O)N(C)[C@@H](Cc2ccccc2)C(=O)N[C@@H](Cc2ccc(OC)c(OC)c2)C(=O)N(C)CC(=O)N[C@@H](Cc2c[nH]c3ccccc23)C(=O)N[C@@H](Cc2ccc(O)cc2)C(=O)N[C@@H](CC(C)C)C(=O)N[C@H](C(=O)NCC(N)=O)CSCC(=O)N[C@@H](Cc2ccccc2)C(=O)N(C)[C@@H](Cc2ccccc2)C(=O)N1C [Example 3533] ({CH2CO}-F[NMeF][NMeNle][Sar]DV[NMeF][Phe(3,4-(OMe)2)][Sar]WYLCG-NH2; thioether N-13) | 6.76 to 30.3 | 4.78 to 72.9 | – | – | –
2 | CCCC[C@H]1C(=O)N(C)[C@@H](CCCC)C(=O)N[C@@H](CCCNC(=N)N)C(=O)N[C@H](C(=O)NCC(N)=O)CSCC(=O)N[C@@H](Cc2ccc(O)cc2)C(=O)N(C)[C@@H](C)C(=O)N[C@@H](CCCN)C(=O)N2CCC[C@H]2C(=O)N[C@@H](C)C(=O)N[C@@H](CCC(=O)O)C(=O)N2C[C@@H](O)C[C@H]2C(=O)N[C@@H](Cc2c[nH]c3ccccc23)C(=O)N[C@@H](CO)C(=O)N[C@@H](Cc2c[nH]c3ccccc23)C(=O)N1C [Example 1147] ({CH2CO}-Y[NMeA][Orn]PAE[cisHyp]WSW[NMeNle][NMeNle]RCG-NH2; thioether N-14) | 6.76 to 30.3 | – | 4.78 to 72.9 | – | –
3 | CCCC[C@H]1C(=O)N(C)CC(=O)N[C@@H](CC(=O)O)C(=O)N[C@@H](C(C)C)C(=O)N(C)[C@@H](Cc2ccccc2)C(=O)N[C@@H](Cc2ccc(O)cc2)C(=O)N(C)CC(=O)N[C@@H](Cc2c[nH]c3ccccc23)C(=O)N[C@@H](Cc2ccc(O)cc2)C(=O)N[C@@H](CC(C)C)C(=O)N[C@H](C(=O)NCC(N)=O)CSCC(=O)N[C@@H](Cc2ccc(Cl)cc2)C(=O)N(C)[C@@H](Cc2ccccc2)C(=O)N1C [Example 3067] ({CH2CO}-[Phe(4-Cl)][NMeF][NMeNle][Sar]DV[NMeF]Y[Sar]WYLCG-NH2; thioether N-13) | 0.385 to 6.74 | – | 0.158 to 4.71 | – | –
4 | CCCC[C@H]1C(=O)N(C)[C@@H](CCCC)C(=O)N[C@@H](CCCNC(=N)N)C(=O)N[C@H](C(=O)NCC(N)=O)CSCC(=O)N[C@@H](Cc2ccccc2)C(=O)N(C)[C@@H](C)C(=O)N[C@@H](CC(N)=O)C(=O)N2CCC[C@H]2C(=O)N[C@@H](Cc2cnc[nH]2)C(=O)N[C@@H](CC(C)C)C(=O)N(C)CC(=O)N[C@@H](Cc2c[nH]c3ccccc23)C(=O)N[C@H](C)C(=O)N[C@@H](Cc2c[nH]c3ccccc23)C(=O)N1C [Example 1061] ({CH2CO}-F[NMeA]NPHL[Sar]W[dA]W[NMeNle][NMeNle]RCG-NH2; thioether N-14) | > 30.5 | – | > 74.3 | – | –
5 | CCCC[C@H]1C(=O)N2CSC[C@@H]2C(=O)N[C@@H](CC(=O)O)C(=O)N[C@@H](C(C)C)C(=O)N(C)[C@@H](Cc2ccccc2)C(=O)N[C@@H](Cc2ccc(O)cc2)C(=O)N(C)CC(=O)N[C@@H](Cc2c[nH]c3ccccc23)C(=O)N[C@@H](Cc2ccc(O)cc2)C(=O)N[C@@H](CC(C)C)C(=O)N[C@H](C(=O)NCC(N)=O)CSCC(=O)N[C@@H](Cc2ccccc2)C(=O)N(C)[C@@H](Cc2ccccc2)C(=O)N1C [Example 3600] ({CH2CO}-F[NMeF][NMeNle][dThz]DV[NMeF]Y[Sar]WYLCG-NH2; thioether N-13) | – | – | – | 6.1 | 3.9
6 | CCCC[C@H]1C(=O)N(C)[C@@H](CCCC)C(=O)N[C@@H](CCCNC(=N)N)C(=O)N[C@H](C(=O)NCC(N)=O)CSCC(=O)N[C@@H](Cc2cccc(Cl)c2)C(=O)N(C)[C@@H](C)C(=O)N[C@@H](CC(N)=O)C(=O)N2CCC[C@H]2C(=O)N[C@@H](Cc2cnc[nH]2)C(=O)N[C@@H](CC(C)C)C(=O)N(C)CC(=O)N[C@@H](Cc2c[nH]c3ccccc23)C(=O)N[C@@H](CO)C(=O)N[C@@H](Cc2c[nH]c3ccccc23)C(=O)N1C [Example 1102] ({CH2CO}-[Phe(3-Cl)][NMeA]NPHL[Sar]WSW[NMeNle][NMeNle]RCG-NH2; thioether N-14) | > 30.5 | – | > 74.3 | – | –

Continued, values first:

Row | IC50 (Human PD-L1/PD-1; [2]) [nM] | IC50 [1, 3] [nM] | IC50 [1, 4] [nM] | IC50 (Human PD-L1/PD-1; value given instead of cluster, read-out: HTRF IC50 value) [nM] | IC50 ([1]; cell binding assay, cell line not given, value given instead of cluster, read-out: CBA IC50 value) [nM] | Structure (SMILES)
7 | > 30.5 | > 74.3 | – | – | – | CCCC[C@H]1C(=O)N(C)[C@@H](CCCC)C(=O)N[C@@H](CCCNC(=N)N)C(=O)N[C@H](C(=O)NCC(N)=O)C/C=C/C(=O)N[C@@H](Cc2ccc(O)cc2)C(=O)N(C)[C@@H](C)C(=O)N[C@@H](CC(N)=O)C(=O)N2CCCC2C(=O)N[C@@H](Cc2cnc[nH]2)C(=O)N[C@@H](CC(C)C)C(=O)N2CCC[C@H]2C(=O)N[C@@H](Cc2c[nH]c3ccccc23)C(=O)N[C@@H](CO)C(=O)N[C@@H](Cc2c[nH]c3ccccc23)C(=O)N1C (stereo partly shown) [Example 7012]
8 | 0.385 to 6.74 | 0.158 to 4.71 | – | – | – | CCCC[C@H]1C(=O)N(C)[C@@H](CCCC)C(=O)N[C@@H](CCC(=O)O)C(=O)N[C@H](C(=O)NCC(N)=O)CSCC(=O)N[C@@H](Cc2ccc(O)cc2)C(=O)N(C)[C@@H](C)C(=O)N[C@@H](CCN)C(=O)N2CCC[C@H]2C(=O)N[C@@H](CO)C(=O)N[C@@H](CCC(=O)O)C(=O)N2C[C@H](O)C[C@H]2C(=O)N[C@@H](Cc2c[nH]c3ccccc23)C(=O)N[C@@H](CCCCN)C(=O)N[C@@H](Cc2c[nH]c3ccccc23)C(=O)N1C [Example 5085] ({CH2CO}-Y[NMeA][Dab]PSE[Hyp]WKW[NMeNle][NMeNle]ECG-NH2; thioether N-14)
9 | 0.385 to 6.74 | 0.158 to 4.71 | – | – | – | CCCC[C@H]1C(=O)N(C)[C@@H](CCCC)C(=O)N[C@@H](C)C(=O)N[C@H](C(=O)NCC(N)=O)CSCC(=O)N[C@@H](Cc2ccc(O)cc2)C(=O)N(C)[C@@H](C)C(=O)N[C@@H](CC(=O)O)C(=O)N2CCC[C@H]2C(=O)N[C@@H](Cc2cnc[nH]2)C(=O)N[C@@H](CCC(N)=O)C(=O)N2CCC[C@H]2C(=O)N[C@@H](Cc2c[nH]c3ccccc23)C(=O)N[C@@H](CO)C(=O)N[C@@H](Cc2c[nH]c3ccccc23)C(=O)N1C [Example 6024] ({CH2CO}-Y[NMeA]DPHQPWSW[NMeNle][NMeNle]ACG-NH2; thioether N-14)
10 | 6.76 to 30.3 | 4.78 to 72.9 | – | – | – | CCCC[C@H]1C(=O)N(C)[C@@H](CCCC)C(=O)N[C@@H](CCCNC(=N)N)C(=O)N[C@H](C(=O)NCC(N)=O)CSCC(=O)N[C@@H](Cc2ccc(O)cc2)C(=O)N(C)[C@@H](C)C(=O)N[C@@H](CC(N)=O)C(=O)N2CCC[C@H]2C(=O)N[C@@H](Cc2ccccn2)C(=O)N[C@@H](CC(C)C)C(=O)N2C[C@H](O)C[C@H]2C(=O)N[C@@H](Cc2c[nH]c3ccccc23)C(=O)N[C@@H](CO)C(=O)N[C@@H](Cc2c[nH]c3ccccc23)C(=O)N1C [Example 7026] ({CH2CO}-Y[NMeA]NP[2Pal]L[Hyp]WSW[NMeNle][NMeNle]RCG-NH2; thioether N-14)
11 | 0.385 to 6.74 | 0.158 to 4.71 | – | – | – | CCCC[C@H]1C(=O)N(C)[C@@H](CCCC)C(=O)N[C@@H](CCCCN)C(=O)N[C@H](C(=O)NCC(N)=O)CSCC(=O)N[C@@H](Cc2ccc(O)cc2)C(=O)N(C)[C@@H](C)C(=O)N[C@@H](CC(N)=O)C(=O)N2CCC[C@H]2C(=O)N[C@@H](Cc2c[nH]cn2)C(=O)N[C@@H](CCC(=O)O)C(=O)N2C[C@H](O)C[C@H]2C(=O)N[C@@H](Cc2c[nH]c3ccccc23)C(=O)N[C@@H](CO)C(=O)N[C@@H](Cc2c[nH]c3ccccc23)C(=O)N1C [Example 5139] ({CH2CO}-Y[NMeA]NPHE[Hyp]WSW[NMeNle][NMeNle]KCG-NH2; thioether N-14)
